According to ChEMBL document CHEMBL1127160, “Phenylalkyl ketones as potent reversible inhibitors of interleukin-1 converting enzyme” (Bioorg Med Chem Lett, 1993):

Target: T1, Caspase-1 (Homo sapiens, UniProt P29466)
T1 sequence (P29466 whole entry): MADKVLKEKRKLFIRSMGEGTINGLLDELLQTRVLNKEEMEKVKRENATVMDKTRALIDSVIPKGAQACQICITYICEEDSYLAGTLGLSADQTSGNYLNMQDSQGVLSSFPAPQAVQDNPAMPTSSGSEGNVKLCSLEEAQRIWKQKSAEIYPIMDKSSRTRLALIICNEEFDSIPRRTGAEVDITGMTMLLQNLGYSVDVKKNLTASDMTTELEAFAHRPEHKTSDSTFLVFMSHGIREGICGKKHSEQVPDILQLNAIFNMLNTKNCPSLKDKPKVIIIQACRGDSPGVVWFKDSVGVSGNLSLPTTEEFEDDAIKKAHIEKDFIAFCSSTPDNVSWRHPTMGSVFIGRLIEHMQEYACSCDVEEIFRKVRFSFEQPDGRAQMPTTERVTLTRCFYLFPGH
Test: The compound was tested for its inhibitory activity against IL-1 beta converting enzyme

Ki [µM] | Compound
3.1 | CC(C)[C@H](NC(=O)CCc1ccccc1)C(=O)N[C@@H](C)C(=O)N[C@@H](CC(=O)O)C(=O)Cc1ccccc1
> 100 | CC(=O)N[C@@H](Cc1ccc(O)cc1)C(=O)N[C@H](C(=O)N[C@@H](C)C(=O)N[C@@H](CC(=O)O)C(=O)c1ccccc1)C(C)C (stereo in doubt; 7c)
0.0185 | CC(=O)N[C@@H](Cc1ccc(O)cc1)C(=O)N[C@H](C(=O)N[C@@H](C)C(=O)N[C@@H](CC(=O)O)C(=O)CCCCCc1ccccc1)C(C)C
4 | CCC(=O)[C@H](CC(=O)O)NC(=O)[C@H](C)NC(=O)[C@@H](NC(=O)[C@H](Cc1ccc(O)cc1)NC(C)=O)C(C)C
> 10 | CC(=O)N[C@@H](Cc1ccc(O)cc1)C(=O)NC(C(=O)N[C@@H](C)C(=O)NC(CC(=O)O)C(C)=O)C(C)C (single isomer, unassigned)
0.042 | CC(=O)N[C@@H](Cc1ccc(O)cc1)C(=O)N[C@H](C(=O)N[C@@H](C)C(=O)N[C@@H](CC(=O)O)C(=O)CCCCc1ccccc1)C(C)C
0.61 | CC(C)[C@H](NC(=O)CCc1ccccc1)C(=O)N[C@@H](C)C(=O)N[C@@H](CC(=O)O)C(=O)CCc1ccccc1
> 100 | CC(=O)N[C@@H](Cc1ccc(O)cc1)C(=O)N[C@H](C(=O)N[C@@H](C)C(=O)N[C@@H](CC(=O)O)C(=O)C1CCCCC1)C(C)C
10 | CC(=O)N[C@@H](Cc1ccc(O)cc1)C(=O)N[C@H](C(=O)N[C@@H](C)C(=O)N[C@@H](CC(=O)O)C(=O)c1ccccc1)C(C)C (stereo in doubt)
0.1 | CC(C)[C@H](NC(=O)CCc1ccccc1)C(=O)N[C@@H](C)C(=O)N[C@@H](CC(=O)O)C(=O)CCCc1ccccc1
